Laboratory results as given in US5916919A, “Retrovirus protease inhibitors” (priority 1997, dated 1999).
≈ marks a conversion by molar mass, not a printed value. Read-outs that look alike come from different tables or passages of the source.

How the values were obtained:
[1] = HIV positive, ARC and AIDS individuals; cited from earlier work
HIV-1 protease = target: T1, HIV-1 protease (Human immunodeficiency virus type 1 group M subtype B, UniProt P04585); assay: HPLC assay of proteolytic activity of recombinant HIV-1 protease (SQNYPIV substrate); assay type: biochemical; details: for Inhibition (inhibitory activity of compounds against HIV-1 protease) / inhibition at 17.9 µg/mL: 17.9 μg/ml, HPLC assay; for inhibition at 17.9 µg/mL: read-out: Inhibition (inhibitory activity of compounds against HIV-1 protease); for anti-HIV-1 protease activity (in words): 17.9 μg/ml (tested concentration)
T1 construct: Recombinant HIV-1 protease was prepared from the expression vector, PGEX-PR 107; made in house
Description: Recombinant HIV-1 protease was prepared from the expression vector, PGEX-PR 107, in E. coli DII5a and was purified according to the method established in Dr. Wan's laboratory.
The proteolytic activity of HIV-1 PR was measured by Dr. Wan's group at the Biochemistry Department using the synthetic heptapeptide Ser-Gln-Asn-Tyr-Pro-Ile-Val (SQNYPIV), corresponding to the p24-p17 cleavage site in the natural gag precursor, as substrate. The products of cleavage were analyzed by reversed-phase high-performance liquid chromatography (RP-HPLC, Ultrasphere ODS, 5μ, 4.6 mm×15 cm, Beckman, Calif., USA) with a 7-33% acetonitrile gradient in 0.1% trifluoroacetic acid (TFA). Product peak areas were integrated by a data system (Chromatopac C-R3A, Shimadzu, Japan) and compared with the standard peptide SQNY, which is expected to be generated from heptapeptide SQNYPIV after HIV-1 protease digestion. The extinction coefficient of the peptide SQNY was used to estimate the rate of proteolysis of the heptapeptide substrate. The assay was performed in a volume of 140 μl containing 90 pmole of substrate, 2 U of HIV-1 protease and compound solution in 0.1 M NaOAc buffer, pH 5.5, with 1 M (NH4)2 SO4, at 37° C. The reaction which proceeded for 2 h was terminated by the addition of 20 μl of aqueous 10% trifluoroacetic acid. The supernatant obtained by centrifuging at 12,000 rpm for 3 min was then analyzed by the hplc method. The unit of enzyme activity was defined as the amount of enzyme which yields 1 nmol of tetrapeptide SQNY under the above conditions in 1 min.
The proteolytic activity of HIV-1 protease inhibited by the compound was calculated as the activity of the control subtracting that of the sample, and then divided by itself.

HIV [2] = details: cited from earlier work
HIV [3] = details: cited from earlier work; remark: listed apart in the source
HIV [4] = details: cited from earlier work; remark: listed apart in the source
HSV = details: cited from earlier work
[5] = system: HIV-infected Molt-4 clone No. 8 cells; details: cited from earlier work
HIV [6] = details: MT-4 cells; cited from earlier work
HIV [7] = details: MT-4 cells, cited from earlier work
[8] = system: HIV-specific antigen expression; details: MT-4 cells; cited from earlier work

Compound: Cc1cn([C@H]2C[C@H](N=[N+]=[N-])[C@@H](CO)O2)c(=O)[nH]c1=O [AZT, 3'-azido-3'-deoxythymidine]
- toxicity [1]: frequently toxic, causing bone marrow suppression resulting in anemia leucopenia and thrombocytopenia

Compound: C[C@@H]1CC[C@]2(C(=O)O)CC[C@]3(C)C(=CC[C@@H]4[C@@]5(C)C[C@@H](O)C(=O)C(C)(C)[C@@H]5CC[C@]43C)[C@@H]2[C@]1(C)O [Compound 1, 2α,19α-Dihydroxy-3-oxo-12-ursen-28-oic acid]
- Inhibition (inhibitory activity of compounds against HIV-1 protease) (HIV-1 protease): 72.19%
- inhibition at 17.9 µg/mL (HIV-1 protease): 72%

Compound: C[C@H]1[C@H](C)CC[C@]2(C(=O)O)CC[C@]3(C)C(=CC[C@@H]4[C@@]5(C)CC[C@H](O)C(C)(C)[C@@H]5CC[C@]43C)[C@H]12 [Compound 2, 3β-Hydroxy-12-ursen-28-oic acid]
- Inhibition (inhibitory activity of compounds against HIV-1 protease) (HIV-1 protease): 85.07%
- inhibition at 17.9 µg/mL (HIV-1 protease): 85%

Compound: C[C@@H]1CC[C@]2(C(=O)O)CC[C@]3(C)C(=CC[C@@H]4[C@@]5(C)CC[C@@H](O)C(C)(C)[C@@H]5CC[C@]43C)[C@@H]2[C@]1(C)O [Compound 3, 3α,19α-Dihydroxy-12-ursen-28-oic acid]
- Inhibition (inhibitory activity of compounds against HIV-1 protease) (HIV-1 protease): 42.18%
- inhibition at 17.9 µg/mL (HIV-1 protease): 42%

Compound: CC1(C)CC[C@]2(C(=O)O)CC[C@]3(C)C(=CC[C@@H]4[C@@]5(C)C[C@@H](O)[C@H](O)C(C)(C)[C@@H]5CC[C@]43C)[C@@H]2C1 [Compound 4, 2α,3β-Dihydroxy-12-oleanen-28-oic acid]
- anti-HIV-1 protease activity (in words) (HIV-1 protease): most active
- inhibition at 17.9 µg/mL (HIV-1 protease): 100%

Compound: C[C@@H]1CC[C@]2(C(=O)O)CC[C@]3(C)C(=CC[C@@H]4[C@@]5(C)C[C@@H](O)[C@@H](O)C(C)(C)[C@@H]5CC[C@]43C)[C@@H]2[C@]1(C)O [Compound 5, 2α,3α,19α-Trihydroxy-12-ursen-28-oic acid]
- anti-HIV-1 protease activity (in words) (HIV-1 protease): did not show activity

Compound: C[C@@H]1CC[C@]2(C(=O)O)CC[C@]3(C)C(=CC[C@@H]4[C@@]5(C)C[C@@H](O)[C@H](O)C(C)(C)[C@@H]5CC[C@]43C)[C@@H]2[C@]1(C)O [Compound 6, 2α,3β,19α-Trihydroxy-12-ursen-28-oic acid]
- Inhibition (inhibitory activity of compounds against HIV-1 protease) (HIV-1 protease): 49.47%
- inhibition at 17.9 µg/mL (HIV-1 protease): 49%

Compound: COc1ccc(-c2cc(=O)c3c(O)cc(O[C@@H]4O[C@H](CO)[C@H](O)[C@H](O)[C@H]4O)cc3o2)cc1 [acacetin-7-O-β-D-galactopyranoside]
- EC50 (HIV [2]): 8 µM
- IC50 (HIV [2]): 37 µM
- anti-HIV activity (in words) (HIV [2]): significant anti-HIV activity
- therapeutic index (HIV [2]): 5

Compound: COc1c(O)cc2c(c1O)[C@@H]1O[C@H](CO)[C@@H](O)[C@H](O)[C@H]1OC2=O [bergenin]
- anti-HIV activity (in words) (HIV [3]; in vitro): moderate anti-HIV activity

Compound: C=C(C)[C@@H]1CC[C@]2(C(=O)O)CC[C@]3(C)[C@H](CC[C@@H]4[C@@]5(C)CC[C@H](O)C(C)(C)[C@@H]5CC[C@]43C)[C@@H]12 [betulinic acid]
- inhibition of HIV replication (in words) (HIV [4]): potent inhibitors of HIV replication

Compound: CC(C)[C@@H]1CC[C@]2(C(=O)O)CC[C@]3(C)C(CCC4[C@@]5(C)CC[C@H](O)C(C)(C)C5CC[C@]43C)C12 (stereo partly shown) [dihydrobetulinic acid]
- inhibition of HIV replication (in words) (HIV [4]): potent inhibitors of HIV replication

Compound: O=Cc1cc(O)c(O)c(O)c1 [gallic aldehyde]
- anti-HSV activity (in words) (HSV): strong anti-HSV activity

Compound: CC1(C)[C@@H](O[C@H]2O[C@H](C(=O)O)[C@@H](O)[C@H](O)[C@H]2O[C@@H]2O[C@H](C(=O)O)[C@@H](O)[C@H](O)[C@H]2O)CC[C@]2(C)[C@H]3C(=O)C=C4[C@@H]5C[C@@](C)(C(=O)O)CC[C@]5(C)CC[C@@]4(C)[C@]3(C)CC[C@@H]12 [glycyrrhizin]
- inhibition of giant cell formation [5]: inhibited giant cell formation
- concentration at which cytopathic effect of HIV was inhibited (HIV [6]): 0.3 mM
- concentration at which HIV-induced plaque formation was inhibited (HIV [7]): 0.6 mM
- IC50 (HIV [7]; read-out: 50% inhibitory dose, HIV-induced plaque formation): 150 µM
- concentration at which HIV-specific antigen expression was inhibited [8]: 0.6 mM

Compound: O=C1O[C@@H]2[C@@H](O)[C@H](O)[C@@H](CO)O[C@H]2c2c1cc(O)c(O)c2O [norbergenin]
- selectivity index (HIV [3]; IC50/EC50 basis not stated): above 25
- EC50 (HIV [3]; in vitro anti-HIV): 20 µg/mL (≈ 63.6 µM)
- IC50 (HIV [3]; in vitro): over 500 μg/ml
- anti-HIV activity (in words) (HIV [3]; in vitro): moderate anti-HIV activity

Compound: CC(=O)[C@@H]1CC[C@]2(C(=O)O)CC[C@]3(C)[C@H](CC[C@@H]4[C@@]5(C)CC[C@H](O)C(C)(C)[C@@H]5CC[C@]43C)[C@@H]12 [platanic acid]
- inhibition of HIV replication (in words) (HIV [4]): potent inhibitors of HIV replication

Compound: geponin
- anti-HSV activity (in words) (HSV): strong anti-HSV activity
